Among the data in PubChem BioAssay (NCI) are GI50 and TGI values, retold here.

Some test systems named below: TK-10 renal; 786-0 renal; OVCAR-4 ovarian; OVCAR-8 ovarian; K-562 leukemia; NCI-H460 lung; UACC-257 melanoma; U251 CNS; NCI/ADR-RES ovarian; SF-539 CNS.
Holding throughout (test): NCI-60 cell line screen, 48 h

Molecules are shown by their SMILES.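 Compound exposure: 48 hours, 5 concentrations, 96-well plates. GI50 is the concentration that inhibits growth by half. Definition used: TGI = concentration required for complete inhibition of growth.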

As for `COc1ccc2c(c1)CC[C@@H]1[C@@H]2CC[C@]2(C)c3c(cc(C(=O)O)c4sccc34)C[C@@H]12`, the GI50 with TK-10 renal was 19.2 µM; in the assay on 786-0 renal, 16.9 µM; with OVCAR-4 ovarian it was 26.3 µM; in the assay with OVCAR-8 ovarian, 24.5 µM; with K-562 leukemia, 5.79 µM; in the assay with NCI-H460 lung, 11.6 µM. In addition, the GI50 was 26.7 µM with UACC-257 melanoma, 16.4 µM with U251 CNS, 15.4 µM with NCI/ADR-RES ovarian and 16.7 µM in the assay on SF-539 CNS. Moreover, the TGI in the assay on TK-10 renal is 48.1 µM; in the assay on 786-0 renal, 32.5 µM; with OVCAR-4 ovarian it was 79.8 µM; with OVCAR-8 ovarian, 88.1 µM; in the assay with K-562 leukemia, 20.9 µM; in the assay on NCI-H460 lung it was 37.7 µM. Moreover, the TGI came to 61.4 µM in the assay with UACC-257 melanoma, 47.5 µM in the assay on U251 CNS, 40.2 µM with NCI/ADR-RES ovarian and 35.1 µM in the assay on SF-539 CNS.
Regarding `CCCCCCCCCCCCSC1=C(Cl)C(=O)C(OC)=C(OC)C1=O`, the GI50 with TK-10 renal is 2.24 µM; in the assay with 786-0 renal it was 4.18 µM; in the assay with OVCAR-4 ovarian, 3.81 µM; with OVCAR-8 ovarian, 2.35 µM; in the assay with K-562 leukemia, 0.205 µM; in the assay on NCI-H460 lung, 2.15 µM. Moreover, the GI50 is 3.62 µM in the assay with UACC-257 melanoma, 1.57 µM in the assay on U251 CNS, 2.48 µM in the assay on NCI/ADR-RES ovarian and 2.81 µM with SF-539 CNS. The TGI is 24.6 µM in the assay with TK-10 renal; 19.2 µM in the assay on 786-0 renal; 26.6 µM with OVCAR-4 ovarian; above 100 µM in the assay with OVCAR-8 ovarian; above 40 µM in the assay with K-562 leukemia; 11.1 µM with NCI-H460 lung. In addition, the TGI in the assay with UACC-257 melanoma is 27.6 µM; with U251 CNS, 12.2 µM; with NCI/ADR-RES ovarian, 8.94 µM; with SF-539 CNS, 11.9 µM.
Consider `COCCNc1ccc2c3c(cccc13)C(=O)N(CCN(C)C)C2=O`, for which the GI50 was 4.2 µM with TK-10 renal; 9.13 µM in the assay on 786-0 renal; 11.8 µM in the assay with OVCAR-4 ovarian; 6.85 µM with OVCAR-8 ovarian; 4.66 µM in the assay with K-562 leukemia; 4.63 µM with NCI-H460 lung. The GI50 was 7.23 µM in the assay with UACC-257 melanoma, 8.71 µM with U251 CNS, 8.98 µM with NCI/ADR-RES ovarian and 7.04 µM in the assay on SF-539 CNS. In addition, the TGI was 22.1 µM in the assay with TK-10 renal; above 25 µM in the assay with 786-0 renal; above 25 µM in the assay with OVCAR-4 ovarian; above 25 µM in the assay with OVCAR-8 ovarian; 11.5 µM in the assay with K-562 leukemia; 11.4 µM in the assay on NCI-H460 lung. The TGI in the assay on UACC-257 melanoma, with U251 CNS, in the assay on NCI/ADR-RES ovarian and in the assay on SF-539 CNS was above 25 µM throughout.
Consider `CCc1nc(N)nc(N)c1-c1ccc2nnn(O)c2c1`, for which the TGI in the assay with TK-10 renal, with 786-0 renal, in the assay on OVCAR-4 ovarian, with OVCAR-8 ovarian, in the assay with K-562 leukemia and in the assay with NCI-H460 lung was above 100 µM in each case. For the same compound, the TGI with UACC-257 melanoma, in the assay on U251 CNS, in the assay on NCI/ADR-RES ovarian and with SF-539 CNS was above 100 µM throughout.
Take `COc1ccc(Nc2cc(C)nc(NCc3ccccc3)n2)cc1`: the GI50 was 5.48 µM with TK-10 renal; 3.49 µM with 786-0 renal; 2.42 µM in the assay on OVCAR-4 ovarian; 6.71 µM in the assay on OVCAR-8 ovarian; 2.69 µM in the assay on K-562 leukemia; 4.09 µM with NCI-H460 lung. For the same compound, the GI50 in the assay on UACC-257 melanoma is 3.18 µM; in the assay with U251 CNS, 3.13 µM; in the assay with NCI/ADR-RES ovarian it was 2.92 µM; with SF-539 CNS, 4.24 µM. For the same compound, the TGI in the assay on TK-10 renal is 18.9 µM; in the assay with 786-0 renal, 17.6 µM; with OVCAR-4 ovarian, 19.3 µM; in the assay with OVCAR-8 ovarian it was 35.2 µM; with K-562 leukemia it was 15.3 µM; in the assay with NCI-H460 lung, 17.6 µM. For the same compound, the TGI in the assay with UACC-257 melanoma turned out to be 13.3 µM; in the assay on U251 CNS, 14.3 µM; in the assay on NCI/ADR-RES ovarian, 17.6 µM; in the assay with SF-539 CNS it was 16.7 µM.
For the compound `Cc1nc(-c2nc(-c3ccc(OC(F)(F)F)cc3)no2)nn1Cc1cccc(N2CCC(S(C)(=O)=O)CC2)c1`, the GI50 is 4.41 µM in the assay with TK-10 renal; 18.4 µM in the assay with 786-0 renal; below 0.0137 µM in the assay on OVCAR-4 ovarian; 3.86 µM with OVCAR-8 ovarian; below 0.01 µM with K-562 leukemia; 5.95 µM with NCI-H460 lung. The GI50 in the assay on UACC-257 melanoma was 0.286 µM; with U251 CNS, above 39.3 µM; with NCI/ADR-RES ovarian, 0.529 µM; in the assay with SF-539 CNS, above 40.4 µM. Besides, the TGI with TK-10 renal is above 100 µM; in the assay with 786-0 renal, above 100 µM; in the assay with OVCAR-4 ovarian it was above 90.6 µM; with OVCAR-8 ovarian, above 100 µM; in the assay on K-562 leukemia, above 100 µM; with NCI-H460 lung it was above 100 µM. Further, the TGI with UACC-257 melanoma is above 86.6 µM; with U251 CNS it was above 100 µM; in the assay on NCI/ADR-RES ovarian, 28.6 µM; in the assay on SF-539 CNS it was above 100 µM.
In the case of `Cc1cc(O)cc(C)c1/C=C/c1cncc(C(N)=O)c1`, the GI50 in the assay on TK-10 renal is 5.99 µM; in the assay with 786-0 renal it was 8.6 µM; in the assay with OVCAR-4 ovarian, 14.5 µM; in the assay with OVCAR-8 ovarian, 4.15 µM; in the assay on K-562 leukemia, 1.06 µM; in the assay on NCI-H460 lung it was 1.84 µM. Also, the GI50 in the assay with UACC-257 melanoma is 3.37 µM; in the assay on U251 CNS it was 1.49 µM; with NCI/ADR-RES ovarian, 1.07 µM; in the assay with SF-539 CNS, 1.87 µM. Further, the TGI with TK-10 renal, in the assay on 786-0 renal, with OVCAR-4 ovarian, with OVCAR-8 ovarian, in the assay on K-562 leukemia and in the assay with NCI-H460 lung was above 25 µM each time. Further, the TGI was above 25 µM with UACC-257 melanoma, above 25 µM in the assay on U251 CNS, above 10.9 µM in the assay on NCI/ADR-RES ovarian and 16.5 µM in the assay on SF-539 CNS.
`CC(N)(/C=C/c1ccccc1)C(=O)O` (stereo not given): the TGI with TK-10 renal, with 786-0 renal, in the assay with OVCAR-4 ovarian, in the assay with OVCAR-8 ovarian, in the assay on K-562 leukemia and with NCI-H460 lung was above 100 µM in each case. Moreover, the TGI in the assay with UACC-257 melanoma, in the assay with U251 CNS, in the assay on NCI/ADR-RES ovarian and in the assay with SF-539 CNS was above 100 µM throughout.
